Values after ≈ are worked out from the molar mass of the structure shown. Where only a bound is given, the exact number is not on record here.

This passage reports MIC results from US20140038989A1, “TETRAHYDROPYRAZOLO [1,5-A] PYRIMIDINE AS ANTI-TUBERCULOSIS COMPOUNDS” (Glaxo Group Limited, priority 2011, published 2014).

In the assay the test system is Mycobacterium tuberculosis H37Rv. Description: Mycobacterium tuberculosis H37Rv Inhibition Assay (Whole Cell Assay). In kind it is cell-based. The following applies: ATCC 25618 / H37Rv, H37Rv strain (ATCC25618), Middlebrook 7H9, six days at 37° C., resazurin fluorescence after 48 hours. Background: The colour change of resazurin is a common sign of viable cells or microbes.
As a reminder, the MIC is the smallest concentration in the dilution series that meets the test's criterion for growth inhibition. A high value points to a need for much substance. As to `CCc1ccc([C@H]2C[C@@H](C(F)(F)F)n3ncc(C(=O)NCc4ncc(F)cc4F)c3N2)cc1` [Example 101, (5R,7S)—N-((3,5-difluoropyridin-2-yl)methyl)-5-(4-ethylphenyl)-7-(trifluoromethyl)-4,5,6,7-tetrahydropyrazolo[1,5-a]pyrimidine-3-carboxamide], the MIC was at most 1 µM.

Take `CCc1ccc([C@H]2C[C@@H](C(F)(F)F)n3ncc(C(=O)NCc4ccco4)c3N2)cc1` (single isomer, unassigned) [Example 7a]: the MIC is at most 1 µM. Consider `CCc1ccc([C@H]2C[C@@H](C(C)C)n3ncc(C(=O)NCc4ccc(OC)cc4)c3N2)cc1` (relative stereo) [Example 71, Cis-5-(4-ethylphenyl)-7-isopropyl-N-(4-methoxybenzyl)-4,5,6,7-tetrahydropyrazolo[1,5-a]pyrimidine-3-carboxamide], for which the MIC was at most 1 µM. The molecule `Cc1ccc([C@H]2C[C@@H](C(F)(F)F)n3ncc(C(=O)NCc4ccc(C(F)(F)F)cc4)c3N2)cc1` (relative stereo) [Example 28, Cis-5-(p-tolyl)-7-(trifluoromethyl)-N-(4-(trifluoromethyl)benzyl)-4,5,6,7-tetrahydropyrazolo[1,5-a]pyrimidine-3-carboxamide] displayed an MIC of 1 to 2 µM (≈ 0.482 to 0.965 µg/mL). With `CCc1ccc([C@H]2C[C@@H](C(F)(F)F)n3ncc(C(=O)NCc4ccc(F)cn4)c3N2)cc1` (relative stereo) [Example 69, Cis-5-(4-ethylphenyl)-N-((5-fluoropyridin-2-yl)methyl)-7-(trifluoromethyl)-4,5,6,7-tetrahydropyrazolo[1,5-a]pyrimidine-3-carboxamide], the minimum inhibitory concentration (MIC) is at most 1 µM.

In turn, `CCc1ccc([C@H]2C[C@@H](C(F)F)n3ncc(C(=O)NCc4ccc(C)cc4)c3N2)cc1` (relative stereo) [Example 33, Cis-7-(difluoromethyl)-5-(4-ethylphenyl)-N-(4-methylbenzyl)-4,5,6,7-tetrahydropyrazolo[1,5-a]pyrimidine-3-carboxamide] returned an MIC of at most 1 µM. The molecule `CCc1ccc([C@H]2C[C@@H](C(F)(F)F)n3ncc(C(=O)NCc4ccccc4)c3N2)cc1` (relative stereo) [Example 15, Cis-N-benzyl-5-(4-ethylphenyl)-7-(trifluoromethyl)-4,5,6,7-tetrahydropyrazolo[1,5-a]pyrimidine-3-carboxamide] came in with an MIC of at most 1 µM. `CCc1ccc([C@H]2C[C@@H](C(F)(F)F)n3ncc(C(=O)NCc4cc(F)cc(F)c4)c3N2)cc1` (relative stereo) [Example 17, Cis-N-[(3,5-difluorophenyl)methyl]-5-(4-ethylphenyl)-7-(trifluoromethyl)-4,5,6,7-tetrahydropyrazolo[1,5-a]pyrimidine-3-carboxamide] yielded an MIC of at most 1 µM. Molecule `CCc1ccc([C@H]2C[C@@H](C(F)(F)F)n3ncc(C(=O)NCc4ccccc4F)c3N2)cc1` (relative stereo) [Example 62, Cis-5-(4-ethylphenyl)-N-(2-fluorobenzyl)-7-(trifluoromethyl)-4,5,6,7-tetrahydropyrazolo[1,5-a]pyrimidine-3-carboxamide] yielded a minimal inhibitory concentration (MIC) of at most 1 µM. The molecule `CCc1ccc([C@H]2C[C@@H](C(F)(F)F)n3ncc(C(=O)NCc4ccc(Cl)nc4)c3N2)cc1` (relative stereo) [Example 76, Cis-N-((6-chloropyridin-3-yl)methyl)-5-(4-ethylphenyl)-7-(trifluoromethyl)-4,5,6,7-tetrahydropyrazolo[1,5-a]pyrimidine-3-carboxamide] yielded a minimum inhibitory concentration (MIC) of 1 to 2 µM (≈ 0.464 to 0.928 µg/mL).

Regarding `CCc1ccc([C@H]2C[C@@H](C(F)(F)F)n3ncc(C(=O)NCc4ccc(F)c(F)c4)c3N2)cc1` (relative stereo) [Example 16, Cis-N-[(3,4-difluorophenyl)methyl]-5-(4-ethylphenyl)-7-(trifluoromethyl)-4,5,6,7-tetrahydropyrazolo[1,5-a]pyrimidine-3-carboxamide], the minimal inhibitory concentration (MIC) is at most 1 µM. For `CCc1ccc([C@H]2C[C@@H](C(F)(F)F)n3ncc(C(=O)NCc4ccc(C)c(C)c4)c3N2)cc1` (relative stereo) [Example 65, Cis-N-(3,4-dimethylbenzyl)-5-(4-ethylphenyl)-7-(trifluoromethyl)-4,5,6,7-tetrahydropyrazolo[1,5-a]pyrimidine-3-carboxamide], the minimum inhibitory concentration (MIC) was at most 1 µM. Molecule `O=C(NCc1ccc2c(c1)OCO2)c1cnn2c1N[C@@H](c1ccc(Br)cc1)C[C@H]2C(F)(F)F` (relative stereo) [Example 22, Cis-N-(benzo[d][1,3]dioxol-5-ylmethyl)-5-(4-bromophenyl)-7-(trifluoromethyl)-4,5,6,7-tetrahydropyrazolo[1,5-a]pyrimidine-3-carboxamide] showed an MIC of at most 1 µM. The figure for `CCc1ccc([C@H]2C[C@@H](C(F)(F)F)n3ncc(C(=O)NCc4cnc(OC)c(F)c4)c3N2)cc1` [Example 104, (5R,7S)-5-(4-ethylphenyl)-N-((5-fluoro-6-methoxypyridin-3-yl)methyl)-7-(trifluoromethyl)-4,5,6,7-tetrahydropyrazolo[1,5-a]pyrimidine-3-carboxamide] is at most 1 µM; for `Cc1ccc([C@H]2C[C@@H](C(F)(F)F)n3ncc(C(=O)NCc4ccco4)c3N2)cc1` (relative stereo) [56′, Cis-N-(furan-2-ylmethyl)-5-(p-tolyl)-7-(trifluoromethyl)-4,5,6,7-tetrahydropyrazolo[1,5-a]pyrimidine-3-carboxamide, reference compound] it is above 2 µM; for `CCc1ccc([C@H]2C[C@@H](C(F)(F)F)n3ncc(C(=O)NCc4ccc(OC)cc4)c3N2)cc1` (relative stereo) [Example 1, Cis-5-(4-ethylphenyl)-N-(4-methoxybenzyl)-7-(trifluoromethyl)-4,5,6,7-tetrahydropyrazolo[1,5-a]pyrimidine-3-carboxamide] it is at most 1 µM.

For `CCc1ccc([C@H]2C[C@@H](C(F)(F)F)n3ncc(C(=O)NCc4ccc(Cl)cn4)c3N2)cc1` (relative stereo) [Example 75, Cis-N-((5-chloropyridin-2-yl)methyl)-5-(4-ethylphenyl)-7-(trifluoromethyl)-4,5,6,7-tetrahydropyrazolo[1,5-a]pyrimidine-3-carboxamide], the MIC is 1 to 2 µM (≈ 0.464 to 0.928 µg/mL). Turning to `CCc1ccc([C@H]2C[C@@H](C(C)(C)C)n3ncc(C(=O)NCc4ccc5c(c4)OCO5)c3N2)cc1` (relative stereo) [Example 36, Cis-N-(benzo[d][1,3]-dioxol-5-ylmethyl)-7-(tert-butyl)-5-(4-ethylphenyl)-4,5,6,7-tetrahydropyrazolo[1,5-a]pyrimidine-3-carboxamide], the MIC was 1 to 2 µM (≈ 0.461 to 0.921 µg/mL).

Take `CCc1ccc([C@H]2C[C@@H](C(F)(F)F)n3ncc(C(=O)NCc4ccc(F)c(C)n4)c3N2)cc1` (relative stereo) [Example 77, Cis-5-(4-ethylphenyl)-N-((5-fluoro-6-methylpyridin-2-yl)methyl)-7-(trifluoromethyl)-4,5,6,7-tetrahydropyrazolo[1,5-a]pyrimidine-3-carboxamide]: the MIC fell in the range of 1 to 2 µM (≈ 0.461 to 0.923 µg/mL). The figure for `CCc1ccc([C@H]2C[C@@H](C(F)(F)F)n3ncc(C(=O)NCc4cccc(F)c4)c3N2)cc1` (relative stereo) [Example 60, Cis-5-(4-ethylphenyl)-N-(3-fluorobenzyl)-7-(trifluoromethyl)-4,5,6,7-tetrahydropyrazolo[1,5-a]pyrimidine-3-carboxamide] is at most 1 µM. Consider `CCc1ccc([C@H]2C[C@@H](C(F)(F)F)n3ncc(C(=O)NCc4ccc(C(F)(F)F)cc4)c3N2)cc1` (relative stereo) [Example 6, Cis-5-(4-ethylphenyl)-7-(trifluoromethyl)-N-(4-(trifluoromethyl)benzyl)-4,5,6,7-tetrahydropyrazolo[1,5-a]pyrimidine-3-carboxamide], for which the MIC was at most 1 µM. On to `CCc1ccc([C@H]2C[C@@H](C(F)(F)F)n3ncc(C(=O)NCc4ccc(OC)nc4)c3N2)cc1` [Example 102, (5R,7S)-5-(4-ethylphenyl)-N-((6-methoxypyridin-3-yl)methyl)-7-(trifluoromethyl)-4,5,6,7-tetrahydropyrazolo[1,5-a]pyrimidine-3-carboxamide], for which the MIC was at most 1 µM.

Take `CCc1ccc([C@H]2C[C@@H](C(F)(F)F)n3ncc(C(=O)NCc4ncc(F)cc4F)c3N2)cc1` (relative stereo) [Example 70, Cis N-((3,5-difluoropyridin-2-yl)methyl)-5-(4-ethylphenyl)-7-(trifluoromethyl)-4,5,6,7-tetrahydropyrazolo[1,5-a]pyrimidine-3-carboxamide]: the MIC was at most 1 µM. Consider `CCc1ccc([C@H]2C[C@@H](C(F)(F)F)n3ncc(C(=O)NCc4ccc(C)c(Cl)c4)c3N2)cc1` (relative stereo) [Example 9, Cis-N-(3-chloro-4-methylbenzyl)-5-(4-ethylphenyl)-7-(trifluoromethyl)-4,5,6,7-tetrahydropyrazolo[1,5-a]pyrimidine-3-carboxamide], for which the minimum inhibitory concentration (MIC) is at most 1 µM. Turning to `CCc1ccc([C@H]2C[C@@H](C(F)(F)F)n3ncc(C(=O)NCc4ccc(Cl)nc4)c3N2)cc1` [Example 103, (5R,7S)—N-((6-chloropyridin-3-yl)methyl)-5-(4-ethylphenyl)-7-(trifluoromethyl)-4,5,6,7-tetrahydropyrazolo[1,5-a]pyrimidine-3-carboxamide], the MIC is at most 1 µM. In turn, `CCc1ccc(C2CC(C(F)(F)F)n3ncc(C(=O)NCc4ccc5c(c4)OCO5)c3N2)cc1` (stereo not shown) [Example 37, N-(benzo[d][1,3]dioxol-5-ylmethyl)-5-(4-ethylphenyl)-7-(trifluoromethyl)-4,5,6,7-tetrahydropyrazolo[1,5-a]pyrimidine-3-carboxamide] came in with an MIC of at most 1 µM.

As to `CCc1ccc([C@H]2C[C@@H](C(F)(F)F)n3ncc(C(=O)NCc4ccc(OC)cc4)c3N2)cc1` (single isomer, unassigned) [Example 1a], the MIC was at most 1 µM.

In turn, `Cc1ccc([C@H]2C[C@@H](C(F)(F)F)n3ncc(C(=O)NCc4cc(F)cc(F)c4)c3N2)cc1` (relative stereo) [Example 30, Cis-N-(3,5-difluorobenzyl)-5-(p-tolyl)-7-(trifluoromethyl)-4,5,6,7-tetrahydropyrazolo[1,5-a]pyrimidine-3-carboxamide] yielded a minimal inhibitory concentration (MIC) of at most 1 µM.
